Source: publication PMC10031741, “A D-cysteine desulfhydrase, SlDCD2, participates in tomato fruit ripening by modulating ROS homoeostasis and ethylene biosynthesis” (Horticulture Research, 2023)

Target: T1, SlDCD2 (Solanum lycopersicum, UniProt A0A3Q7EA38)
T1 construct: gene LOC101256906; tag removal not mentioned
T1 sequence (A0A3Q7EA38 1-442): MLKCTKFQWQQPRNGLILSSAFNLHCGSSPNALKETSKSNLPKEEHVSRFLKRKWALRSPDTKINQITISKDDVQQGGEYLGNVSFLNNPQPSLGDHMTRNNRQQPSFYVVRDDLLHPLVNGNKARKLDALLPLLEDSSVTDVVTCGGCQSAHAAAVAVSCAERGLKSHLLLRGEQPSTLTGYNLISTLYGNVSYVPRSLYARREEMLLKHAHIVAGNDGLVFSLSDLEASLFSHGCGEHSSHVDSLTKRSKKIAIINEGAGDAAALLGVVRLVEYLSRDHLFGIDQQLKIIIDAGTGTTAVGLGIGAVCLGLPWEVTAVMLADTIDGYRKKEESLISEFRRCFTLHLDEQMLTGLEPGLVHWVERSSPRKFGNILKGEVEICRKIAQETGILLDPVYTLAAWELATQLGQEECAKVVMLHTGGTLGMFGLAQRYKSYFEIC
Assay: H2S production, methylene blue at […] nm
Format: biochemical
Conditions: H2S release; assay as in cited reference

In the case of `N[C@H](CS)C(=O)O` [D-cysteine], the “H2S production, methylene blue at 670 nm” value is reported as “Using D-cysteine as the substrate, the enzymatic activity of SlDCD2 was evaluated”.
